Assay results reported in patent US12030865B2, “Pesticidal mixtures comprising indazoles” (FMC Corporation, priority 2018, dated 2024).

Columns and labels:
Type in all cases: in vivo
[1] = system: Western Flower Thrips (Frankliniellla occidentalis (Pergande)); assay: Test D: control of Western Flower Thrips on Soleil bean plant, spray; settings: adult thrips, held 6 days
Description: (§1) Test compounds were formulated using a solution containing 10% acetone, 90% water and 300 ppm X-77® Spreader Lo-Foam Formula non-ionic surfactant containing alkylarylpolyoxyethylene, free fatty acids, glycols and isopropanol (Loveland Industries, Inc. Greeley, Colorado, USA). The formulated compounds were applied in 1 mL of liquid through a SUJ2 atomizer nozzle with 1/8 JJ custom body (Spraying Systems Co. Wheaton, Illinois, USA) positioned 1.27 cm (0.5 inches) above the top of each test unit. Test compounds were sprayed at the rates indicated, and each test was replicated three times.
For evaluating control of the Western Flower Thrips (Frankliniellla occidentalis (Pergande)) through contact and/or systemic means, the test unit consisted of a small open container with a 5-7-day-old Soleil bean plant inside.
Test compounds were formulated and sprayed at 250 and/or 50 ppm. After spraying, the test units were allowed to dry for 1 hour, and then 22-27 adult thrips were added to each unit. A black, screened cap was placed on top, and the test units were held for 6 days at 25° C. and 45-55% relative humidity.

[2] = system: green peach aphid (Myzus persicae (Sulzer)); assay: Test A: control of green peach aphid on pre-infested radish plant, spray; settings: 144 h, visually assessed after 6 days; for mortality at 50 ppm: sprayed at 50 ppm; for mortality at 250 ppm: sprayed at 250 ppm
Description: as §1
For evaluating control of green peach aphid (Myzus persicae (Sulzer)) through contact and/or systemic means, the test unit consisted of a small open container with a 12-15-day-old radish plant inside. This was pre-infested by placing on a leaf of the test plant 30-40 aphids on a piece of leaf excised from a culture plant (cut-leaf method). The aphids moved onto the test plant as the leaf piece desiccated. After pre-infestation, the soil of the test unit was covered with a layer of sand.
Test compounds were formulated and sprayed at 250 and/or 50 ppm. After spraying of the formulated test compound, each test unit was allowed to dry for 1 hour and then a black, screened cap was placed on top. The test units were held for 6 days in a growth chamber at 19-21° C. and 50-70% relative humidity. Each test unit was then visually assessed for insect mortality.

[3] = system: sweetpotato whitefly (Bemisia tabaci (Gennadius)); assay: Test C: control of sweetpotato whitefly on egg-infested cotton plant, spray; settings: 312 h, cotton plant with eggs, visually assessed after 13 days; for mortality at 250 ppm: sprayed at 250 ppm
Description: as §1
For evaluating control of the sweetpotato whitefly (Bemisia tabaci (Gennadius)) through contact and/or systemic means, the test unit consisted of a small open container with a 12-14-day-old cotton plant inside. Prior to the spray application, both cotyledons were removed from the plant, leaving one true leaf for the assay. Adult whiteflies were allowed to lay eggs on the plant and then were removed from the test unit. Cotton plants infested with at least 15 eggs were submitted to the test for spraying.
Test compounds were formulated and sprayed at 250 and/or 50 ppm. After spraying, the test units were allowed to dry for 1 hour. The cylinders were then removed, and the units were taken to a growth chamber and held for 13 days at 28° C. and 50-70% relative humidity. Each test unit was then visually assessed for insect mortality.

[4] = system: cotton melon aphid (Aphis gossypii (Glover)); assay: Test B: control of cotton melon aphid on pre-infested cotton plant, spray; settings: 144 h, sprayed at 50 ppm, visually assessed after 6 days
Description: as §1
For evaluating control of cotton melon aphid (Aphis gossypii (Glover)) through contact and/or systemic means, the test unit consisted of a small open container with a 6-7-day-old cotton plant inside. This was pre-infested with 30-40 insects on a piece of leaf according to the cut-leaf method, and the soil of the test unit was covered with a layer of sand.
Test compounds were formulated and sprayed at 250 and/or 50 ppm. After spraying, the test units were maintained in a growth chamber for 6 days at 19° C. and 70% relative humidity. Each test unit was then visually assessed for insect mortality.

In the case of `O=C(NC1(C(F)F)CC1)c1cccc2nn(-c3cccnc3)cc12` [Compound 1, N-[1-(difluoromethyl)cyclopropyl]-2-(3-pyridinyl)-2H-indazole-4-carboxamide], the “control efficacy (30% or less plant damage and/or 100% mortality)” value ([1]; sprayed at 50 ppm) is reported as “very good to excellent levels of control efficacy”, the “control efficacy (30% or less plant damage and/or 100% mortality)” value ([1]; sprayed at 250 ppm) is reported as “very good to excellent levels of control efficacy” and the mortality at 50 ppm [2] is reported as no less than 80%. For the same compound, the mortality at 250 ppm [2] was no less than 80%, the mortality at 50 ppm ([3]; sprayed at 50 ppm) was no less than 50% and the mortality at 250 ppm [3] was no less than 50%. The mortality at 50 ppm [4] was no less than 80%.

In the case of `CSCC(C)(C)NC(=O)c1ccc(F)c2nn(-c3cccnc3)cc12` [Compound 2a, N-[1,1-dimethyl-2-(methylthio)ethyl]-7-fluoro-2-(3-pyridinyl)-2H-indazole-4-carboxamide], the “control efficacy (30% or less plant damage and/or 100% mortality)” value ([1]; sprayed at 50 ppm) is reported as “very good to excellent levels of control efficacy”, the “control efficacy (30% or less plant damage and/or 100% mortality)” value ([1]; sprayed at 250 ppm) is reported as “very good to excellent levels of control efficacy” and the mortality at 50 ppm [2] is reported as no less than 80%. It also gave a mortality at 250 ppm [2] of no less than 80% and a mortality at 50 ppm [4] of no less than 80%.

In the case of `C[S+]([O-])CC(C)(C)NC(=O)c1ccc(F)c2nn(-c3cccnc3)cc12` (stereo not shown) [Compound 2b, N-[1,1-dimethyl-2-(methylsulfinyl)ethyl]-7-fluoro-2-(3-pyridinyl)-2H indazole-4-carboxamide], the “control efficacy (30% or less plant damage and/or 100% mortality)” value ([1]; sprayed at 50 ppm) is reported as “very good to excellent levels of control efficacy”, the “control efficacy (30% or less plant damage and/or 100% mortality)” value ([1]; sprayed at 250 ppm) is reported as “very good to excellent levels of control efficacy” and the mortality at 50 ppm [2] is reported as no less than 80%. It also gave a mortality at 250 ppm [3] of no less than 50% and a mortality at 50 ppm [4] of no less than 80%.

With `CC(C)(CS(C)(=O)=O)NC(=O)c1ccc(F)c2nn(-c3cccnc3)cc12` [Compound 2c, N-[1,1-dimethyl-2-(methylsulfonyl)ethyl]-7-fluoro-2-(3-pyridinyl)-2H indazole-4-carboxamide] the mortality at 50 ppm [2] was no less than 80% and the mortality at 50 ppm [4] was no less than 80%.
